According to publication PMC6792352, “Limited Chemical Structural Diversity Found to Modulate Thyroid Hormone Receptor in the Tox21 Chemical Library” (Environmental Health Perspectives, 2019):
Where a name gives a salt, the structure may show the parent alone.

Assay: in vitro
Details: rat, gh3-tre-luc cells

SMILES | CC50 at 24 h (AC50 (uM) modified / 1000) [µM] | further results
CCCCCCCCc1ccc(S(=O)(=O)O)cc1 [Sodium 4-octylbenzenesulfonate] | > 90 | –
COc1ccccc1N [2-Methoxyaniline hydrochloride] | > 90 | –
CCC(=O)OC(C)c1ccccc1 (stereo not drawn) [1-Phenylethyl propionate] | > 90 | –
O=C(O)c1ccccc1C(=O)Nc1ccc(S(=O)(=O)Nc2nccs2)cc1 [Phthalylsulfathiazole] | > 50 | –
OC[C@H]1O[C@H](O[C@]2(CCl)O[C@H](CCl)[C@@H](O)[C@@H]2O)[C@H](O)[C@@H](O)[C@H]1Cl [Sucralose] | > 90 | –
CN1C(C)(C)CCCC1(C)C [Pempidine d-tartaric acid] | > 50 | –
CCCC(c1cc(C(C)(C)C)c(O)cc1C)c1cc(C(C)(C)C)c(O)cc1C [4,4'-Butane-1,1-diylbis(2-tert-butyl-5-methylphenol)] | 3.97 | –
CC[C@@H](C)[C@@H](N)C(=O)O [D-Isoleucine] | > 50 | –
O=S(=O)(O)C(F)(F)C(F)(F)C(F)(F)C(F)(F)C(F)(F)C(F)(F)F [Potassium perfluorohexanesulfonate] | – | CC50 at 24 h (AC50 (uM) modified / 1000, Tox21_110001=Tox21_300396, viability, 1 nM T3 present, 24 h): > 90 µM
Cc1nn(-c2cc(NS(C)(=O)=O)c(Cl)cc2Cl)c(=O)n1C(F)F [Sulfentrazone] | > 90 | –
CC1=CC(=O)NS(=O)(=O)O1 [Acesulfame potassium] | > 90 | –
CCCCCCCCCCOC(=O)c1ccccc1C(=O)OCCCCCCCC [Octyl decyl phthalate] | > 90 | –
CCCCCCCCCCCCBr [1-Bromododecane] | – | CC50 at 24 h (AC50 (uM) modified / 1000, Tox21_110001=Tox21_302046, viability, 1 nM T3 present, 24 h): > 90 µM
Oc1cccc(O)c1O [Pyrogallol] | 44.6 | –
CN1CCN(CC/C=C2/c3ccccc3Sc3ccc(S(=O)(=O)N(C)C)cc32)CC1 [Thiothixene] | 10.7 | –
Cc1cc(O)ccc1O [Methylhydroquinone] | 14.8 | –
OCCN1CCNCC1 [1-Piperazineethanol] | > 90 | –
O=C1c2ccccc2C(=O)N1CO [2-(Hydroxymethyl)-1H-Isoindole-1,3(2H)-dione] | > 90 | –
O=C1c2cccc(O)c2C(=O)c2c(O)cc(CO)cc21 [Aloe-emodin] | > 90 | –
CCOC(=O)Cn1cccc1-c1nc(-c2ccc(OC)cc2)c(-c2ccc(OC)cc2)s1 [Pamicogrel] | > 50 | –
CCC(C)(S(=O)(=O)CC)S(=O)(=O)CC [Sulfonethylmethane] | – | CC50 at 24 h (AC50 (uM) modified / 1000, Tox21_110001=Tox21_112153, viability, 1 nM T3 present, 24 h): > 50 µM
Nc1ccc2c3c(cccc13)-c1ccccc1-2 [3-Aminofluoranthene] | > 90 | –
CC(=O)c1ccc2c(c1)CCCC2 [6-Acetyl-1,2,3,4-tetrahydronaphthalene] | > 90 | –
CCc1cc(SCc2sc(-c3ccc(C(F)(F)F)cc3)nc2CN2CCN(c3ccc(OC)cc3)CC2)ccc1OCC(=O)O [PharmaGSID_47315] | 22.4 | –

SMILES | CC50 at 24 h (AC50 (uM) modified / 1000) [µM] | further results
NC(=O)N1C(=O)/C(=C(\O)c2cccs2)c2cc(Cl)ccc21 [Tenidap] | 41.8 | –
Oc1ccc(Cl)c(Cl)c1Cl [2,3,4-Trichlorophenol] | – | CC50 at 24 h (AC50 (uM) modified / 1000, Tox21_110001=Tox21_200297, viability, 1 nM T3 present, 24 h): > 100 µM
N#CC(CCc1ccc(Cl)cc1)(Cn1cncn1)c1ccccc1 (stereo not drawn) [Fenbuconazole] | 49.1 | –
C[C@]12C=CC(=O)C=C1CC[C@@H]1[C@@H]2C(=O)C[C@@]2(C)[C@H]1CC[C@]2(O)C(=O)CO [Prednisone] | > 90 | –
COc1ccc2c(c1OC)C(=O)O[C@H]2[C@@H]1c2cc3c(cc2CCN1C)OCO3 [(1S,9R)-beta-Hydrastine] | – | CC50 at 24 h (AC50 (uM) modified / 1000, Tox21_110001=Tox21_110815, viability, 1 nM T3 present, 24 h): > 50 µM
Sc1nc2ccccc2s1 [2-Mercaptobenzothiazole] | > 50 | –
CCOC(=O)CCC(=O)O[C@H]1[C@H](O[C@@H]2[C@@H](C)[C@H](O[C@H]3C[C@@](C)(OC)[C@@H](O)[C@H](C)O3)[C@@H](C)C(=O)O[C@H](CC)[C@@](C)(O)[C@H](O)[C@@H](C)C(=O)[C@H](C)C[C@@]2(C)O)O[C@H](C)C[C@@H]1N(C)C [Erythromycin ethylsuccinate] | > 50 | –
Cc1cc(NC(=O)C2=C(O)c3ccccc3S(=O)(=O)N2C)no1 [Isoxicam] | > 50 | –
COc1cc(C(=O)NC2CCCNC2)cc(OC)c1OC (stereo not drawn) [Troxipide] | > 50 | –
CC(COCCO)OCCO (stereo not drawn) [Pluronic F-127] | > 80 | –
CCC(O)C(C)(C)C (stereo not drawn) [2,2-Dimethyl-3-pentanol] | > 90 | –
[H]/N=C(/N)N[C@H]1[C@H](O)[C@@H](O)[C@H](O[C@@H]2O[C@@H](C)[C@](O)(C=O)[C@H]2O[C@@H]2O[C@@H](CO)[C@H](O)[C@@H](O)[C@@H]2NC)[C@@H](N/C(N)=N\[H])[C@@H]1O [Streptomycin sulfate (2:3)] | > 50 | –
CCC(O)c1ccccc1 (stereo not drawn) [1-Phenyl-1-propanol] | > 50 | –
O=C(O)CCC(=O)C(=O)O [alpha-Ketoglutaric acid] | > 90 | –
O=CC(=O)c1ccccc1 [Phenylglyoxal] | > 90 | –
O=c1[nH]c(=O)c2c[nH]nc2[nH]1 [Oxypurinol] | > 90 | –
CC(=O)CCC(C)C [5-Methyl-2-hexanone] | > 90 | –
COc1cc2c(cc1OC)-c1c/c(=N\c3c(C)cc(C)cc3C)n(C)c(=O)n1CC2 [Trequinsin hydrochloride] | 20.3 | –
Oc1cccc(Cl)c1 [3-Chlorophenol] | > 90 | –
N#CSCSC#N [Methylene bis(thiocyanate)] | – | CC50 at 24 h (AC50 (uM) modified / 1000, Tox21_110001=Tox21_202325, viability, 1 nM T3 present, 24 h): 3.41 µM; CC50 at 24 h (AC50 (uM) modified / 1000, Tox21_110001=Tox21_301058, viability, 1 nM T3 present, 24 h): 5.63 µM
CCCCCCCCCCCCCCCCCCCCCC(=O)Nc1ccn([C@@H]2O[C@H](CO)[C@@H](O)[C@@H]2O)c(=O)n1 [Enocitabine] | > 50 | –
S=C(S)NCCNC(=S)S [Nabam-sodium] | > 90 | –
COc1ccc(CCN(C)CCCN2CCc3cc(OC)c(OC)cc3CC2=O)cc1OC [Zatebradine hydrochloride] | > 50 | –
CCCCCC1=CCCC1=O [2-Pentyl-2-cyclopenten-1-one] | > 90 | –

SMILES | CC50 at 24 h (AC50 (uM) modified / 1000) [µM] | further results
CCCC(=O)Nc1c(I)cc(I)c(CC(CC)C(=O)O)c1I (stereo not drawn) [Sodium tyropanoate] | 26.5 | –
COc1ccc(C(=O)c2c(C)n(CCN3CCOCC3)c3ccccc23)cc1 [Pravadoline] | – | CC50 at 24 h (AC50 (uM) modified / 1000, Tox21_110001=Tox21_111785, viability, 1 nM T3 present, 24 h): > 50 µM
CCCCOCCOCCOCCO [2-[2-(2-Butoxyethoxy)ethoxy]ethanol] | > 90 | –
O=C1c2ccccc2C(=O)c2cc(O)ccc21 [2-Hydroxyanthraquinone] | > 90 | –
NC(=O)N/N=C/c1ccc([N+](=O)[O-])o1 [Nitrofurazone] | > 90 | –
ONc1ccccc1 [N-Phenylhydroxylamine] | > 100 | –
COCc1nnc(-c2ccc[n+]([O-])c2)n1-c1c(Cl)c(Cl)cc2[nH]c(=O)c(=O)[nH]c12 [UK-333747] | > 90 | –
C=C[C@H]1C[N@@]2CC[C@H]1C[C@H]2[C@H](O)c1ccnc2ccc(OC)cc12 [Quinine hemisulfate salt monohydrate] | > 50 | –
CCC(=O)O[C@]1(C(=O)SCF)[C@H](C)C[C@H]2[C@@H]3C[C@H](F)C4=CC(=O)C=C[C@]4(C)[C@@]3(F)[C@@H](O)C[C@@]21C [Fluticasone propionate] | > 20 | –
CCC(Cl)[N+](=O)[O-] (stereo not drawn) [1-Chloro-1-nitropropane] | > 100 | –
CC(C)(C#N)c1cc(Cn2cncn2)cc(C(C)(C)C#N)c1 [Anastrozole] | > 30 | –
CCOC(=O)/C=C(C)/C=C/C=C(C)/C=C/c1c(C)cc(OC)c(C)c1C [Etretinate] | > 50 | –
CN/C(=N\[N+](=O)[O-])NCc1cnc(Cl)s1 [Clothianidin] | > 90 | –
COc1ccc(O)cc1 [4-Methoxyphenol] | > 90 | –
O=C(Nc1ccc(Cl)c(Cl)c1)C1CC1 [Cypromid] | > 50 | –
NC(=O)c1ncn([C@@H]2O[C@H](CO)[C@@H](O)[C@H]2O)c1O [Mizoribine] | > 50 | –
C=CCOCC(O)CO (stereo not drawn) [Glycerol 1-allylether] | > 90 | –
COC(=O)[C@@H](N)Cc1ccc(O)c(O)c1 [Methyl L-DOPA hydrochloride] | 19.9 | –
CCCCCCCCCCCC(=O)OC[C@@H](O)[C@H]1OC[C@H](O)[C@H]1O [Sorbitan monododecanoate] | > 50 | –
CCCSSCCC [Dipropyl disulfide] | > 90 | –
CC(C)CCOC(=O)/C=C/c1ccccc1 [3-Methylbutyl cinnamate] | > 90 | –
Oc1ncnc2[nH]ncc12 [Allopurinol] | > 90 | –
Nc1ncnc2c1ncn2[C@@H]1O[C@H](COP(=O)(O)O)[C@@H](O)[C@H]1O [Adenosine 5'-phosphate] | > 50 | –
